# Test system: Anti-β-1,6-Glucan IgG antibodies (affinity purified from IVIG, Baxter)
# Assay: ELISA: binding of oligosaccharides to anti-β-1,6-glucan antibodies; note: key: a plus (+) sign indicates that the glucan was active in the assay; a minus (−) sign indicates that the glucan was not active; the '+/−' symbol indicates inconclusive results
# Conditions: plate coated with oligosaccharide in PBS; 40 ug/mL anti-Beta 1,6 Glucan IgG; anti-human IgG-HRP, TMB, absorbance at 620 nm
# Protocol: Binding of oligosaccharides to anti-β-1,6-glucan antibodies is performed as described in the following protocol.
# • 1. […] Anti-β-1,6-Glucan IgG antibodies (affinity purified from IVIG, Baxter) • 6. […] PBS-Tween buffer (PH 7.2, 0.05% Tween 20, Kpl cat #51-12-01) II. Method: Detection of Anti-Beta Glucan IgG by ELISA • 1. Coat plate with oligosaccharides in PBS overnight at 4° C. • 2. Wash 3 times with 250 uL of PBS-Tween • 3. Empty plate • 4. Block plate with 200 uL of Casein for 1 hour at room temperature • 5. Empty plate • 6. Add 40 ug/mL anti-Beta 1,6 Glucan IgG (4 ug/well) in Casein • 7. Incubate for 45 min at room temperature • 8. Wash 3 times with 250 uL of PBS-Tween • 9. Empty plate • 10. Add detection antibody: anti-human IgG-HRP at 1:5000—in casein. Incubate for 45 min at room temperature in the dark • 11. Wash 5 times with 250 uL of PBS-Tween • 12. Empty plate • 13. Add 100 uL of one step ultra TMB • 14. Measure the absorbance at 620 nm every 1 min for 60 min Tables 1-3 provide ELISA assay data for certain glucan compounds.
row,Molecule,ELISA assay data: glucan active in detection of anti-beta glucan IgG
1,"O=C(O)c1cc(OCc2cn(CCO[C@@H]3O[C@H](CO[C@@H]4O[C@H](CO[C@@H]5O[C@H](CO[C@@H]6O[C@H](CO[C@@H]7O[C@H](CO[C@@H]8O[C@H](CO)[C@@H](O)[C@H](O)[C@H]8O)[C@@H](O)[C@H](O)[C@H]7O)[C@@H](O)[C@H](O)[C@H]6O)[C@@H](O)[C@H](O)[C@H]5O)[C@@H](O)[C@H](O)[C@H]4O)[C@@H](O)[C@H](O)[C@H]3O)nn2)cc(OCc2cn(CCO[C@@H]3O[C@H](CO[C@@H]4O[C@H](CO[C@@H]5O[C@H](CO[C@@H]6O[C@H](CO[C@@H]7O[C@H](CO[C@@H]8O[C@H](CO)[C@@H](O)[C@H](O)[C@H]8O)[C@@H](O)[C@H](O)[C@H]7O)[C@@H](O)[C@H](O)[C@H]6O)[C@@H](O)[C@H](O)[C@H]5O)[C@@H](O)[C@H](O)[C@H]4O)[C@@H](O)[C@H](O)[C@H]3O)nn2)c1 [(β-D-glucopyanosy1-1,6)nβ-O(CH2)2-, n=6, 3,5-bis(1[2-[O-β-D-glucopyranosyl-(1→6)]6oxy]ethyl-1H-1,2,3-triazol-4-yl)methoxybenzoic acid]",+
2,"O=C(O)C1CCN(CC(O)[C@@H](O)[C@H](O)[C@H](O)CO[C@@H]2O[C@H](CO[C@@H]3O[C@H](CO[C@@H]4O[C@H](CO[C@@H]5O[C@H](CO)[C@@H](O)[C@H](O)[C@H]5O)[C@@H](O)[C@H](O)[C@H]4O)[C@@H](O)[C@H](O)[C@H]3O)[C@@H](O)[C@H](O)[C@H]2O)CC1 (mixture of isomers) [4-piperidineCO2H, n=4]",+
3,"N#C[C@H](O[C@@H]1O[C@H](CO[C@@H]2O[C@H](CO)[C@@H](O)[C@H](O)[C@H]2O)[C@@H](O)[C@H](O)[C@H]1O)c1ccccc1 [β-OCH(CN)Ph, n=2, amygdalin, reference compound]",−
4,"1-O-[2-(2-oxymethoxy)ethoxy]-6-O—[O-β-D-glucopyranosyl-(1,6)]3-β-D-glucopyranoside [β-O(CH2)2O(CH2)2C═O, n=4]",+
5,"O=C(O)C1CCN(CC(O)[C@@H](O)[C@H](O)[C@H](O)CO[C@@H]2O[C@H](CO[C@@H]3O[C@H](CO[C@@H]4O[C@H](CO)[C@@H](O)[C@H](O)[C@H]4O)[C@@H](O)[C@H](O)[C@H]3O)[C@@H](O)[C@H](O)[C@H]2O)C1 (mixture of isomers) [3-pyrrolidineCO2H, n=3]",+
6,"N-[6-[(O-(β-D-glucopyranosyl-(1,6))4-β-D-glucopyranosyl](2RS,3R,4R,5R)-2,3,4,5-tetrahydroxyhexyl]-4-piperidylacetic acid [4-piperidine(CH2)CO2H, n=5]",+
7,"[O-β-D-glucopyranosyl-1,6-]5-D-glucose [OH, n=6]",+
8,"3,5-bis(1-[2-[O-β-D-glucopyranosyl-(1→6)-O-β-D-glucopyranosyl-(1→6)-O-β-D-glucopyranosyl-(1→6)-α-D-glucopyranosyl]oxy]ethyl-1H-1,2,3-triazol-4-yl)methoxybenzoic acid [(β-D-glucopyanosy1-1,6)nα-O(CH2)2-, n=4]",+
9,"O=C(O)c1cc(OCc2cn(CCO[C@@H]3O[C@H](CO[C@@H]4O[C@H](CO[C@@H]5O[C@H](CO[C@@H]6O[C@H](CO[C@@H]7O[C@H](CO)[C@@H](O)[C@H](O)[C@H]7O)[C@@H](O)[C@H](O)[C@H]6O)[C@@H](O)[C@H](O)[C@H]5O)[C@@H](O)[C@H](O)[C@H]4O)[C@@H](O)[C@H](O)[C@H]3O)nn2)cc(OCc2cn(CCO[C@@H]3O[C@H](CO[C@@H]4O[C@H](CO[C@@H]5O[C@H](CO[C@@H]6O[C@H](CO[C@@H]7O[C@H](CO)[C@@H](O)[C@H](O)[C@H]7O)[C@@H](O)[C@H](O)[C@H]6O)[C@@H](O)[C@H](O)[C@H]5O)[C@@H](O)[C@H](O)[C@H]4O)[C@@H](O)[C@H](O)[C@H]3O)nn2)c1 [(β-D-glucopyanosy1-1,6)nβ-O(CH2)2-, n=5, 3,5-bis(1[2-[O-β-D-glucopyranosyl-(1→6)]5oxy]ethyl-1H-1,2,3-triazol-4-yl)methoxybenzoic acid]",+
10,"CN(CCCCCN)CC(O)[C@@H](O)[C@H](O)[C@H](O)CO[C@@H]1O[C@H](CO[C@@H]2O[C@H](CO[C@@H]3O[C@H](CO[C@@H]4O[C@H](CO[C@@H]5O[C@H](CO)[C@@H](O)[C@H](O)[C@H]5O)[C@@H](O)[C@H](O)[C@H]4O)[C@@H](O)[C@H](O)[C@H]3O)[C@@H](O)[C@H](O)[C@H]2O)[C@@H](O)[C@H](O)[C@H]1O (mixture of isomers) [N(Me),N(CH2)5NH2, n=5]",+
11,"[(2R,3R,4R,5RS)-2,3,4,5-tetrahydroxy-6-[(N-methyl-N-(5-aminopentyl))amino]hexyl [O-β-D-glucopyranosyl-1,6]6-β-D-glucopyranoside [N(Me),N(CH2)5NH2, n=7]",+

# Second part, the molecule after the results:
row,ELISA assay data: glucan active in detection of anti-beta glucan IgG,Molecule
1,+,"OC[C@H]1O[C@@H](OC[C@H]2O[C@@H](OC[C@H]3O[C@@H](OC[C@H]4O[C@@H](OC[C@H]5O[C@@H](OC[C@H]6O[C@@H](OC[C@H]7O[C@@H](OC[C@H]8O[C@@H](OC[C@H]9O[C@@H](OC[C@H]%10O[C@@H](OC[C@H]%11OC(O)[C@H](O)[C@@H](O)[C@@H]%11O)[C@H](O)[C@@H](O)[C@@H]%10O)[C@H](O)[C@@H](O)[C@@H]9O)[C@H](O)[C@@H](O)[C@@H]8O)[C@H](O)[C@@H](O)[C@@H]7O)[C@H](O)[C@@H](O)[C@@H]6O)[C@H](O)[C@@H](O)[C@@H]5O)[C@H](O)[C@@H](O)[C@@H]4O)[C@H](O)[C@@H](O)[C@@H]3O)[C@H](O)[C@@H](O)[C@@H]2O)[C@H](O)[C@@H](O)[C@@H]1O (stereo partly drawn) [OH, n=11, [O-β-D-glucopyranosyl-1,6]10-D-glucose]"
2,+,"COC1O[C@H](CO[C@@H]2O[C@H](CO[C@@H]3O[C@H](CO[C@@H]4O[C@H](CO[C@@H]5O[C@H](CO[C@@H]6O[C@H](CO[C@@H]7O[C@H](CO[C@@H]8O[C@H](CO[C@@H]9O[C@H](CO[C@@H]%10O[C@H](CO)[C@@H](O)[C@H](O)[C@H]%10O)[C@@H](O)[C@H](O)[C@H]9O)[C@@H](O)[C@H](O)[C@H]8O)[C@@H](O)[C@H](O)[C@H]7O)[C@@H](O)[C@H](O)[C@H]6O)[C@@H](O)[C@H](O)[C@H]5O)[C@@H](O)[C@H](O)[C@H]4O)[C@@H](O)[C@H](O)[C@H]3O)[C@@H](O)[C@H](O)[C@H]2O)[C@@H](O)[C@H](O)[C@H]1O (stereo partly drawn) [OCH3, n=10, methyl [O-β-D-glucopyranosyl-1,6]9-D-glucopyranoside]"
3,+,"COC1O[C@H](CO[C@@H]2O[C@H](CO[C@@H]3O[C@H](CO[C@@H]4O[C@H](CO[C@@H]5O[C@H](CO)[C@@H](O)[C@H](O)[C@H]5O)[C@@H](O)[C@H](O)[C@H]4O)[C@@H](O)[C@H](O)[C@H]3O)[C@@H](O)[C@H](O)[C@H]2O)[C@@H](O)[C@H](O)[C@H]1O (stereo partly drawn) [OCH3, n=5, methyl [O-β-D-glucopyranosyl-1,6-]4-D-glucopyranoside]"
4,+,"OC[C@H]1O[C@@H](OC[C@H]2O[C@@H](OC[C@H]3O[C@@H](OC[C@H]4O[C@@H](OC[C@H]5O[C@@H](OC[C@H]6OC(OCCCl)[C@H](O)[C@@H](O)[C@@H]6O)[C@H](O)[C@@H](O)[C@@H]5O)[C@H](O)[C@@H](O)[C@@H]4O)[C@H](O)[C@@H](O)[C@@H]3O)[C@H](O)[C@@H](O)[C@@H]2O)[C@H](O)[C@@H](O)[C@@H]1O (stereo partly drawn) [α-O(CH2)2Cl, n=6, 2-chloroethyl [O-β-D-glucopyranosyl-1,6]5-D-glucopyranoside]"
5,+,"[N-]=[N+]=NCCOC1OC(COC2OC(COC3OC(COC4OC(COC5OC(COC6OC(CO)C(O)C(O)C6O)C(O)C(O)C5O)C(O)C(O)C4O)C(O)C(O)C3O)C(O)C(O)C2O)C(O)C(O)C1O (stereo not drawn) [α-O(CH2)2N3, n=6]"
6,+,"COC1O[C@H](CO[C@@H]2O[C@H](CO[C@@H]3O[C@H](CO[C@@H]4O[C@H](CO[C@@H]5O[C@H](CO[C@@H]6O[C@H](CO[C@@H]7O[C@H](CO[C@@H]8O[C@H](CO[C@@H]9O[C@H](CO)[C@@H](O)[C@H](O)[C@H]9O)[C@@H](O)[C@H](O)[C@H]8O)[C@@H](O)[C@H](O)[C@H]7O)[C@@H](O)[C@H](O)[C@H]6O)[C@@H](O)[C@H](O)[C@H]5O)[C@@H](O)[C@H](O)[C@H]4O)[C@@H](O)[C@H](O)[C@H]3O)[C@@H](O)[C@H](O)[C@H]2O)[C@@H](O)[C@H](O)[C@H]1O (stereo partly drawn) [OCH3, n=9, methyl [O-β-D-glucopyranosyl-1,6]8-D-glucopyranoside]"
7,+,"[N-]=[N+]=NCCOC1OC(COC2OC(COC3OC(CO)C(O)C(O)C3O)C(O)C(O)C2O)C(O)C(O)C1O (stereo not drawn) [α-O(CH2)2N3, n=3]"
8,+,"OC[C@H]1O[C@@H](OC[C@H]2O[C@@H](OC[C@H]3O[C@@H](OC[C@H]4O[C@@H](OC[C@H]5O[C@H](OCCCl)[C@H](O)[C@@H](O)[C@@H]5O)[C@H](O)[C@@H](O)[C@@H]4O)[C@H](O)[C@@H](O)[C@@H]3O)[C@H](O)[C@@H](O)[C@@H]2O)[C@H](O)[C@@H](O)[C@@H]1O [α-O(CH2)2Cl, n=5, 2-chloroethyl [O-β-D-glucopyranosyl-1,6]4-D-glucopyranoside]"
